Experimental data from patent US8987268B2, “Pyrrolopyridazine JAK3 inhibitors and their use for the treatment of inflammatory and autoimmune diseases” (Bristol-Myers Squibb Company, priority 2011, dated 2015).
Like-named read-outs stand apart in the source and are kept apart here.

Legend:
GST-JAK3 enzyme = GST-JAK3 enzyme (Homo sapiens (Human), UniProt P52333); assay: JAK3 Kinase Assay Protocol (Caliper); format: biochemical; conditions: JAK3 kinase inhibition; read-out: LLE_JAK3_FB (IC50)
Protocol: JAK3 Kinase Assay Protocol (Caliper)
(§1) The assay reactions were performed in U-bottom 384-well plates. […] The reaction was initiated by the combination of GST-JAK3 enzyme with substrates and test compounds. The reactions were incubated at room temperature for 3 hours and terminated by adding 60 μl of 35 mM EDTA to each sample. Each reaction mixture was analyzed on the Caliper LabChip 3000 (Caliper, Hopkinton, Mass.) by electrophoretic separation of the fluorescent substrate and phosphorylated product. […] Compounds were dissolved at 10 mM in dimethylsulfoxide (DMSO) and evaluated at eleven concentrations. IC50 values were derived by non-linear regression analysis.

GST-JAK1 enzyme = GST-JAK1 enzyme (Homo sapiens (Human), UniProt P23458); assay: JAK1 Kinase Assay Protocol; format: biochemical; conditions: read-out: LLE_JAK1 (IC50)
Protocol: JAK1 Kinase Assay Protocol
as §1, with “GST-JAK1” for “GST-JAK3”

Chain of GST-JAK1 enzyme (P23458 whole entry): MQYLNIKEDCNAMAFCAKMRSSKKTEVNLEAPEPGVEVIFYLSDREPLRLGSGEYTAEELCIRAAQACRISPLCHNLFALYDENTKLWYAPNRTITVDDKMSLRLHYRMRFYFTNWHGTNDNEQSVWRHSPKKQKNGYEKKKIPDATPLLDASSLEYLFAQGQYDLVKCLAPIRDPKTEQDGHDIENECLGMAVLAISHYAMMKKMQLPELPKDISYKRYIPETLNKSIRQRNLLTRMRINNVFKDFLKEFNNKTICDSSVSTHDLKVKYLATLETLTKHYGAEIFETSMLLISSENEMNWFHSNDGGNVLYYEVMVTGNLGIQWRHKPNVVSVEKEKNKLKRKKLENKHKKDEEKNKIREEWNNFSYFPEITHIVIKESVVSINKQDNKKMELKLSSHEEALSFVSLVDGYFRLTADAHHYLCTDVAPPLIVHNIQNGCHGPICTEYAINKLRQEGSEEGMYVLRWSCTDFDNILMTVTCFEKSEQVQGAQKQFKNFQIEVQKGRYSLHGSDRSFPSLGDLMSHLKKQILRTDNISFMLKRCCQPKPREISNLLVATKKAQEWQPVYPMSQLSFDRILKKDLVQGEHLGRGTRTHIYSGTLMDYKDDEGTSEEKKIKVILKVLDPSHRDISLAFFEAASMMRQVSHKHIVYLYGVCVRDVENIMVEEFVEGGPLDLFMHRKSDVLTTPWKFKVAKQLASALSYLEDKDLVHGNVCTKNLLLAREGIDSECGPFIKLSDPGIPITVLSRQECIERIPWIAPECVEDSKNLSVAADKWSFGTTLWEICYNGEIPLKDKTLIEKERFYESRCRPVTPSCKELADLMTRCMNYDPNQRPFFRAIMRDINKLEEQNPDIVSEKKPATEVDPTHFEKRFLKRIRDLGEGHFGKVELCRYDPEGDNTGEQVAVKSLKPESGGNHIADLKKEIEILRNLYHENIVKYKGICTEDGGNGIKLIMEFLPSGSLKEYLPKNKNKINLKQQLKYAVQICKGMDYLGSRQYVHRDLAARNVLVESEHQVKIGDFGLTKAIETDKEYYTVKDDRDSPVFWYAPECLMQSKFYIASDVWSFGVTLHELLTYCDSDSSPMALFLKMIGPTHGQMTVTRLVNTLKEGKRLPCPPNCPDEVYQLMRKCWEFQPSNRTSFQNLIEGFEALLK
Chain of GST-JAK3 enzyme (P52333 whole entry): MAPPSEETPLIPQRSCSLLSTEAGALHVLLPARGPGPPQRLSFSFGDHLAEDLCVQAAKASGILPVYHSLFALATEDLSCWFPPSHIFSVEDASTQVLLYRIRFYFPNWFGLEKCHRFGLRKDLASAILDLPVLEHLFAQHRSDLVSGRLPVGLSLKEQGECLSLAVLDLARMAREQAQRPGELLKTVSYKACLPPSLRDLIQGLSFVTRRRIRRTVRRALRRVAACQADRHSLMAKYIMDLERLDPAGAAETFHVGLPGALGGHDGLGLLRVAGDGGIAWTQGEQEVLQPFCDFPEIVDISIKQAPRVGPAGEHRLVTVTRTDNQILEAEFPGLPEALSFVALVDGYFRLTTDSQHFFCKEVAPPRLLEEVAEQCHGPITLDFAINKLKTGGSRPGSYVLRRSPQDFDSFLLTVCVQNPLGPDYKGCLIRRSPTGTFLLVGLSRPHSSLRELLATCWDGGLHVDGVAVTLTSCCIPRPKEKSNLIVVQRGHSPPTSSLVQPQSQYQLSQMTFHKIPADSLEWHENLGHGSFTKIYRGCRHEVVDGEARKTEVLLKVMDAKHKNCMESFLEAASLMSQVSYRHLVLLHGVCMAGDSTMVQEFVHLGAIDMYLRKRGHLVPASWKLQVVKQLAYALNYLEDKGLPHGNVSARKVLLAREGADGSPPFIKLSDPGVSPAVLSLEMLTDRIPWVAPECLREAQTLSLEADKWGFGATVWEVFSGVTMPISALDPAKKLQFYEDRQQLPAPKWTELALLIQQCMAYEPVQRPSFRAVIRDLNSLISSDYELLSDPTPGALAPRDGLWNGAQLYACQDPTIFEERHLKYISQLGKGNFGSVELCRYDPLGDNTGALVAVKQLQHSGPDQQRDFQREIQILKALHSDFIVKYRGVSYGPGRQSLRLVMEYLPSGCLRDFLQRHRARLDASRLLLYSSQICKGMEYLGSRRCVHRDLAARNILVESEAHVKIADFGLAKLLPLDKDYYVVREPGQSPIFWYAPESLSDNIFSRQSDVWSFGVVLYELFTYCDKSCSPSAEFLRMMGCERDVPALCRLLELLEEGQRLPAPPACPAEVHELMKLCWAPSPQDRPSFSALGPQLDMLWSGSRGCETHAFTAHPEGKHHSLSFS

SMILES: C[C@@H]1[C@H]2CN(C(=O)CF)C[C@H]2C[C@H]1Nc1c(C(N)=O)cnn2cc(-c3cnc(N)c(F)c3)cc12 [Example 69, 6-(6-amino-5-fluoropyridin-3-yl)-4-((3aS,4R,5R,6aS)-2-(2-fluoroacetyl)-4-methyloctahydrocyclopenta[c]pyrrol-5-ylamino)pyrrolo[1,2-b]pyridazine-3-carboxamide]
- IC50 (GST-JAK3 enzyme): 1.5 nM
- IC50 (GST-JAK1 enzyme): 1.2 nM

SMILES: CC[C@H]1CN(C(=O)C2(C#N)CCC2)C[C@H]1Nc1c(C(N)=O)cnn2cc(-c3ccnc(Cl)c3)cc12 [Example 257, 6-(2-chloropyridin-4-yl)-4-((3S,4S)-1-(1-cyanocyclobutanecarbonyl)-4-ethylpyrrolidin-3-ylamino)pyrrolo[1,2-b]pyridazine-3-carboxamide]
- IC50 (GST-JAK3 enzyme): 0.3 nM
- IC50 (GST-JAK1 enzyme; JAK1 kinase inhibition): 1.2 nM

SMILES: C[C@@H]1[C@H]2CN(C(=O)C(C)(C)O)C[C@H]2C[C@H]1Nc1c(C(N)=O)cnn2cc(-c3cnn(C)c3)cc12 [Example 83, 4-((3aS,4R,5R,6aS)-2-(2-hydroxy-2-methylpropanoyl)-4-methyloctahydrocyclopenta[c]pyrrol-5-ylamino)-6-(1-methyl-1H-pyrazol-4-yl)pyrrolo[1,2-b]pyridazine-3-carboxamide]
- IC50 (GST-JAK3 enzyme): 1.5 nM
- IC50 (GST-JAK1 enzyme; JAK1 kinase inhibition): 1.4 nM

SMILES: CO[C@H]1CN(C(=O)C2(C#N)CC2)C[C@H]1Nc1c(C(N)=O)cnn2cc(-c3ccc(F)cc3)cc12 [Example 305, 4-(((3R,4S)-1-(1-cyanocyclopropanecarbonyl)-4-methoxypyrrolidin-3-yl)amino)-6-(4-fluorophenyl)pyrrolo[1,2-b]pyridazine-3-carboxamide]
- IC50 (GST-JAK3 enzyme): 1.5 nM
- IC50 (GST-JAK1 enzyme; JAK1 kinase inhibition): 1.1 nM

SMILES: CC1(F)COCC1Nc1c(C(N)=O)cnn2cc(N3CCCC3=O)cc12 (stereo not drawn) [Example 40, 4-(4-fluoro-4-methyltetrahydrofuran-3-ylamino)-6-(2-oxopyrrolidin-1-yl)pyrrolo[1,2-b]pyridazine-3-carboxamide]
- IC50 (GST-JAK3 enzyme): 15.1 nM
- IC50 (GST-JAK1 enzyme; JAK1 kinase inhibition): 40.3 nM

SMILES: CCC(=O)N1C[C@H]2C[C@@H](Nc3c(C(N)=O)cnn4cc(-c5ccc(F)nc5)cc34)[C@H](C)[C@H]2C1 [Example 97, 6-(6-fluoropyridin-3-yl)-4-((3aS,4R,5R,6aS)-4-methyl-2-propionyloctahydrocyclopenta[c]pyrrol-5-ylamino)pyrrolo[1,2-b]pyridazine-3-carboxamide]
- IC50 (GST-JAK3 enzyme): 1.4 nM
- IC50 (GST-JAK1 enzyme; JAK1 kinase inhibition): 3.1 nM

SMILES: CC[C@@H]1CN(C(=O)[C@@H](O)CC)CC[C@H]1Nc1c(C(N)=O)cnn2cc(-c3cnn(C)c3)cc12 [Example 127, 4-(((3R,4R)-3-ethyl-1-((S)-2-hydroxybutanoyl)piperidin-4-yl)amino)-6-(1-methyl-1H-pyrazol-4-yl)pyrrolo[1,2-b]pyridazine-3-carboxamide]
- IC50 (GST-JAK3 enzyme): 5.6 nM
- IC50 (GST-JAK1 enzyme; JAK1 kinase inhibition): 7.6 nM

SMILES: C[C@H]1CN(c2ccc(C#N)cn2)C[C@H]1Nc1c(C(N)=O)cnn2cc(-c3cnn(CC(=O)N4CC(F)(F)C4)c3)cc12 [Example 184, 4-(((3S,4S)-1-(5-cyanopyridin-2-yl)-4-methylpyrrolidin-3-yl)amino)-6-(1-(2-(3,3-difluoroazetidin-1-yl)-2-oxoethyl)-1H-pyrazol-4-yl)pyrrolo[1,2-b]pyridazine-3-carboxamide]
- IC50 (GST-JAK3 enzyme): 0.4 nM
- IC50 (GST-JAK1 enzyme; JAK1 kinase inhibition): 0.2 nM

SMILES: CC[C@@H]1CN(C(=O)[C@H](C)O)CC[C@H]1Nc1c(C(N)=O)cnn2cc(-c3ccnc(OC)c3)cc12 [Example 134, 4-((3R,4R)-3-ethyl-1-((S)-2-hydroxypropanoyl)piperidin-4-ylamino)-6-(2-methoxypyridin-4-yl)pyrrolo[1,2-b]pyridazine-3-carboxamide]
- IC50 (GST-JAK3 enzyme): 7 nM
- IC50 (GST-JAK1 enzyme; JAK1 kinase inhibition): 4.5 nM
